Tests used:
[1] = system: NCI-H358; assay: combination cScore with adagrasib (Bliss gap around IC50) (%PoC); higher = stronger additive effect
Summary of the method: (§1)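 After 24 h in 384-well plates (500 or 800 cells per well), NCI-H2122, NCI-H358 and SW837 cells received concentration matrices and grew for 72 h, except SW837, which grew for 144 h. CellTiter-Glo readings were scaled to vehicle wells and fitted with four-parameter curves. Each score is the averaged Bliss-independence difference (expected minus measured viability) over a region around both monotherapy IC50s, or at top concentrations when no IC50 was reached.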

[2] = system: NCI-H2122; assay: as above
Summary of the method: as §1

[3] = system: SW837; assay: as above
Summary of the method: as §1

[4] = system: NCI-H358; assay: combination cScore with sotorasib (Bliss gap around IC50) (%PoC); higher = stronger additive effect
Summary of the method: as §1

[5] = system: NCI-H2122; assay: as above
Summary of the method: as §1

[6] = system: SW837; assay: as above
Summary of the method: as §1

Compound	combination cScore with adagrasib [1]	combination cScore with adagrasib [2]	combination cScore with adagrasib [3]	combination cScore with sotorasib [4]	combination cScore with sotorasib [5]	combination cScore with sotorasib [6]
CC(C)N(CCCNC(=O)Nc1ccc(C(C)(C)C)cc1)C[C@H]1O[C@@H](n2ccc3c(N)ncnc32)[C@H](O)[C@@H]1O + C=C(F)C(=O)N1CCN(c2nc(OC[C@@H]3CCCN3C)nc3c2CCN(c2cccc4cccc(Cl)c24)C3)C[C@@H]1CC#N [adagrasib]	9.87	19.1	2.74	–	–	–
CNS(=O)(=O)Nc1nccc(Cc2c(C)c3ccc(Oc4ncccn4)cc3oc2=O)c1F + C=C(F)C(=O)N1CCN(c2nc(OC[C@@H]3CCCN3C)nc3c2CCN(c2cccc4cccc(Cl)c24)C3)C[C@@H]1CC#N [adagrasib]	3.4	9.73	3.07	–	–	–
COc1ncc(-c2ccc3nccc(-c4ccnnc4)c3c2)cc1NS(=O)(=O)c1ccc(F)cc1F + C=C(F)C(=O)N1CCN(c2nc(OC[C@@H]3CCCN3C)nc3c2CCN(c2cccc4cccc(Cl)c24)C3)C[C@@H]1CC#N [adagrasib]	5.98	23.1	4.03	–	–	–
C[C@@H]1CN(CC(=O)Nc2ccc3c(c2)Cc2cccc(-c4cc(=O)cc(N5CCOCC5)o4)c2S3)C[C@H](C)O1 + C=C(F)C(=O)N1CCN(c2nc(OC[C@@H]3CCCN3C)nc3c2CCN(c2cccc4cccc(Cl)c24)C3)C[C@@H]1CC#N [adagrasib]	6.62	18.9	3.63	–	–	–
Cc1c(-c2c(-c3ccc(F)o3)sc3ncnc(O[C@H](Cc4ccccc4OCc4ccnn4CC(F)(F)F)C(=O)O)c23)ccc(OCCN2CCN(C)CC2)c1Cl + C=C(F)C(=O)N1CCN(c2nc(OC[C@@H]3CCCN3C)nc3c2CCN(c2cccc4cccc(Cl)c24)C3)C[C@@H]1CC#N [adagrasib]	5.46	8.13	4.73	–	–	–
Cc1c(Cn2c(C)nc3c(C(=O)O)cc(N4CCOCC4)cc32)cccc1C(F)(F)F + C=C(F)C(=O)N1CCN(c2nc(OC[C@@H]3CCCN3C)nc3c2CCN(c2cccc4cccc(Cl)c24)C3)C[C@@H]1CC#N [adagrasib]	-4.04	8.98	-1.49	–	–	–
Cc1cc(C)c(CNC(=O)c2cc(-c3ccc(N4CCNCC4)nc3)cc3c2c(C)cn3C2CCCC2)c(=O)[nH]1 + C=C(F)C(=O)N1CCN(c2nc(OC[C@@H]3CCCN3C)nc3c2CCN(c2cccc4cccc(Cl)c24)C3)C[C@@H]1CC#N [adagrasib]	5.44	20.3	-0.2	–	–	–
Cc1nc(Nc2n[nH]c3c2CN(C(=O)N[C@H](CN(C)C)c2ccccc2)C3(C)C)c2sccc2n1 + C=C(F)C(=O)N1CCN(c2nc(OC[C@@H]3CCCN3C)nc3c2CCN(c2cccc4cccc(Cl)c24)C3)C[C@@H]1CC#N [adagrasib]	-5.91	8.47	-0.72	–	–	–
O=C(C1CC1)N1CC[C@@H](Cn2c(-c3ccc(-c4ccc5occc5c4)cc3)nc3cnccc32)C1 + C=C(F)C(=O)N1CCN(c2nc(OC[C@@H]3CCCN3C)nc3c2CCN(c2cccc4cccc(Cl)c24)C3)C[C@@H]1CC#N [adagrasib]	7.72	7.98	7.68	–	–	–
O=c1cc(-c2cccc3c2Sc2ccccc2S3)oc(N2CCOCC2)c1 + C=C(F)C(=O)N1CCN(c2nc(OC[C@@H]3CCCN3C)nc3c2CCN(c2cccc4cccc(Cl)c24)C3)C[C@@H]1CC#N [adagrasib]	7.9	12.4	4.85	–	–	–
CC1(C)CCC(c2ccc(Cl)cc2)=C(CN2CCN(c3ccc(C(=O)NS(=O)(=O)c4ccc(N[C@H](CCN5CCOCC5)CSc5ccccc5)c(S(=O)(=O)C(F)(F)F)c4)cc3)CC2)C1 [ABT-263] + C=C(F)C(=O)N1CCN(c2nc(OC[C@@H]3CCCN3C)nc3c2CCN(c2cccc4cccc(Cl)c24)C3)C[C@@H]1CC#N [adagrasib]	6.81	12.1	30.9	–	–	–
COc1cc(CCc2cc(NC(=O)c3ccc(N4CC(C)NC(C)C4)cc3)n[nH]2)cc(OC)c1 (stereo not given) [AZD4547] + C=C(F)C(=O)N1CCN(c2nc(OC[C@@H]3CCCN3C)nc3c2CCN(c2cccc4cccc(Cl)c24)C3)C[C@@H]1CC#N [adagrasib]	-1.38	11.3	5.13	–	–	–
O=C(/C=C/N1C[C@H]2C[C@@H]1CN2c1ccccn1)c1ccccc1O [PFI-3] + C=CC(=O)N1CCN(c2nc(=O)n(-c3c(C)ccnc3C(C)C)c3nc(-c4c(O)cccc4F)c(F)cc23)[C@@H](C)C1 [sotorasib]	–	–	–	0.77	15.8	-2.6
O=C(c1c(F)ccc(NS(=O)(=O)N2CC[C@@H](F)C2)c1F)c1c[nH]c2ncc(-c3cnc(C4CC4)nc3)cc12 [PLX8394] + C=CC(=O)N1CCN(c2nc(=O)n(-c3c(C)ccnc3C(C)C)c3nc(-c4c(O)cccc4F)c(F)cc23)[C@@H](C)C1 [sotorasib]	–	–	–	6.09	24.2	3.79
CC(=O)c1c(C)c2cnc(Nc3ccc(N4CCNCC4)cn3)nc2n(C2CCCC2)c1=O [Palbociclib] + C=CC(=O)N1CCN(c2nc(=O)n(-c3c(C)ccnc3C(C)C)c3nc(-c4c(O)cccc4F)c(F)cc23)[C@@H](C)C1 [sotorasib]	–	–	–	3.92	8.77	38.3
Cc1ccc(C(=O)Nc2ccc(CN3CCN(C)CC3)c(C(F)(F)F)c2)cc1C#Cc1cnc2cccnn12 [Ponatinib] + C=CC(=O)N1CCN(c2nc(=O)n(-c3c(C)ccnc3C(C)C)c3nc(-c4c(O)cccc4F)c(F)cc23)[C@@H](C)C1 [sotorasib]	–	–	–	0.16	19.1	1.65
CCc1nc(N)nc(N)c1-c1ccc(Cl)cc1 [Pyrimethamine] + C=CC(=O)N1CCN(c2nc(=O)n(-c3c(C)ccnc3C(C)C)c3nc(-c4c(O)cccc4F)c(F)cc23)[C@@H](C)C1 [sotorasib]	–	–	–	-6.53	5.47	-4.42
CC1(N)CCN(c2cnc(-c3cccc(Cl)c3Cl)c(N)n2)CC1 [SHP099] + C=CC(=O)N1CCN(c2nc(=O)n(-c3c(C)ccnc3C(C)C)c3nc(-c4c(O)cccc4F)c(F)cc23)[C@@H](C)C1 [sotorasib]	–	–	–	7.84	19.1	9.98
CCc1c2c(nc3ccc(O)cc13)-c1cc3c(c(=O)n1C2)COC(=O)[C@]3(O)CC [SN-38] + C=CC(=O)N1CCN(c2nc(=O)n(-c3c(C)ccnc3C(C)C)c3nc(-c4c(O)cccc4F)c(F)cc23)[C@@H](C)C1 [sotorasib]	–	–	–	2.64	11.8	2.7
C[C@@H]1OCC2(CCN(c3cnc(Sc4ccnc(N)c4Cl)c(N)n3)CC2)[C@@H]1N [TNO155] + C=CC(=O)N1CCN(c2nc(=O)n(-c3c(C)ccnc3C(C)C)c3nc(-c4c(O)cccc4F)c(F)cc23)[C@@H](C)C1 [sotorasib]	–	–	–	10.6	41.9	41.3
CC/C(=C(\c1ccccc1)c1ccc(OCCN(C)C)cc1)c1ccccc1 [Tamoxifen] + C=CC(=O)N1CCN(c2nc(=O)n(-c3c(C)ccnc3C(C)C)c3nc(-c4c(O)cccc4F)c(F)cc23)[C@@H](C)C1 [sotorasib]	–	–	–	2.01	11.1	0.835
Cc1nc(-c2cn3c(n2)-c2ccc(-c4cnn(C(C)(C)C(N)=O)c4)cc2OCC3)n(C(C)C)n1 [Taselisib] + C=CC(=O)N1CCN(c2nc(=O)n(-c3c(C)ccnc3C(C)C)c3nc(-c4c(O)cccc4F)c(F)cc23)[C@@H](C)C1 [sotorasib]	–	–	–	7.14	25.3	32.8
COc1cc2/c(=N/c3ccc(Br)cc3F)nc[nH]c2cc1OCC1CCN(C)CC1 [Vandetanib] + C=CC(=O)N1CCN(c2nc(=O)n(-c3c(C)ccnc3C(C)C)c3nc(-c4c(O)cccc4F)c(F)cc23)[C@@H](C)C1 [sotorasib]	–	–	–	7.76	28.4	22.6
Oc1nc(-c2ccc(C(F)(F)F)cc2)nc2c1CSCC2 [XAV939] + C=CC(=O)N1CCN(c2nc(=O)n(-c3c(C)ccnc3C(C)C)c3nc(-c4c(O)cccc4F)c(F)cc23)[C@@H](C)C1 [sotorasib]	–	–	–	7.36	14.2	7.47
CCNC(=O)C[C@@H]1N=C(c2ccc(Cl)cc2)c2cc(OC)ccc2-n2c(C)nnc21 [iBET-762] + C=CC(=O)N1CCN(c2nc(=O)n(-c3c(C)ccnc3C(C)C)c3nc(-c4c(O)cccc4F)c(F)cc23)[C@@H](C)C1 [sotorasib]	–	–	–	5.17	22.3	7.05

Source: the supplement of paper PMC11424490
